Reference: publication PMC6105673 (Nature Communications, 2018)
Non-standard residues stand in square brackets, D forms with d. *: point of attachment. Biotin = O=C1N[C@H]2[C@H](CS[C@H]2CCCCC(=O)*)N1; Hyp = O=C(O)[C@@H]1C[C@@H](O)CN1

Tested on: pVHL
Assay: In vitro pVHL-HIF-2α binding assay (streptavidin pull-down with IVTT HA-VHL30)
Details: synthetically hydroxylated biotinylated peptides on streptavidin-agarose, IVTT HA-VHL30, 2 h at 4 °C, stringent and mild buffer
Experimental: Fig. 4 Affinity of HIF-2α mutants for pVHL is correlated with disease phenotype. a Biotinylated HIF-2α peptides (523–541) were immobilized on a streptavidin-coated 96-well plate. Binding to various concentrations of pVHL-elongin B-elongin C (VBC) complex was assayed via ELISA with an anti-eloB antibody. Absorbance was read at 450 nm. Values represent mean of three independent experiments performed in duplicate ± SEM. *p < 0.05; **p < 0.01. b Biotinylated HIF-2αOH peptides (523–541) were immobilized on streptavidin- agarose beads and incubated with in vitro transcribed and translated (IVTT) pVHL. Streptavidin beads were pulled down (PD) and levels of HA-tagged pVHL were visualized via immmunoblotting (IB). c, d Biolayer interferometry kinetic analysis of VBC complex binding to biotinylated HIF-2α peptides (523–541). c Biotinylated peptides were coupled to streptavidin- coated biosensors and monitored for binding to VBC complex at the indicated concentrations. The data were analyzed based on a 1:1 binding model using the BLItz Pro software with the fitted curves shown as gray lines. […]
The in vitro pVHL-HIF-2α binding assay was performed according to a previously published protocol. […] Protein levels of HA-VHL30 were determined by western blotting. […]

Substance: HIF-2αOH L542 peptide: synthetically P531-hydroxylated HIF-2α peptide (523–542), presumably carrying L542P (Biotin-ELDLETLA[Hyp]YIPMDGEDFQP-NH2; SMILES CC[C@H](C)[C@H](NC(=O)[C@H](Cc1ccc(O)cc1)NC(=O)[C@@H]1C[C@@H](O)CN1C(=O)[C@H](C)NC(=O)[C@H](CC(C)C)NC(=O)[C@@H](NC(=O)[C@H](CCC(=O)O)NC(=O)[C@H](CC(C)C)NC(=O)[C@H](CC(=O)O)NC(=O)[C@H](CC(C)C)NC(=O)[C@H](CCC(=O)O)NC(=O)CCCC[C@@H]1SC[C@@H]2NC(=O)N[C@@H]21)[C@@H](C)O)C(=O)N1CCC[C@H]1C(=O)N[C@@H](CCSC)C(=O)N[C@@H](CC(=O)O)C(=O)NCC(=O)N[C@@H](CCC(=O)O)C(=O)N[C@@H](CC(=O)O)C(=O)N[C@@H](Cc1ccccc1)C(=O)N[C@@H](CCC(N)=O)C(=O)N1CCC[C@H]1C(N)=O)
- binding of IVTT pVHL in pull-down (immunoblot, in words): rescued binding to pVHL
